The text below walks through data of patent publication US10618914B2 (UNIVERSITY OF PITTSBURGH—OF THE COMMONWEALTH SYSTEM OF …, priority 2015, dated 2020).

Like-named read-outs stand apart in the source and are kept apart here. A value given as a limit tells only on which side of the number the result lay.

What all share (assay type): cell-based
One experiment deals with STAT1. Put plainly: STAT1 assay (selectivity counter-screen). The note with it: Table 4.
The next experiment relates to STAT3. Put plainly: HCS STAT3 assay.
The subject of the next experiment is Cal33 cells. Briefly: Cal33 growth inhibition. The following applies: read-out: Cal33 (IC50).
Where [1] appears, read: Table 4, read-out: STAT3 IC50 (converted).
[2] abbreviates: Table 2, read-out: STAT3 (IC50).

The IC50 is the concentration at which inhibition is half-maximal. Consider `Clc1ccc(C2=Nn3c(nnc3-c3cc(-c4ccccc4)n[nH]3)SC2)cc1Cl` [1b], for which, in the experiment on STAT1, the IC50 is more than 50 µM. With `Clc1ccc(C2=Nn3c(nnc3-c3[nH]nc4c3CCC4)SC2)cc1` [2a], the IC50 with STAT1 was more than 50 µM. In the case of `Clc1cccc(C2=Nn3c(nnc3-c3[nH]nc4c3CCC4)SC2)c1` [6a], the IC50 in the experiment on STAT1 is more than 50 µM.

As for `Clc1cccc(C2=Nn3c(nnc3-c3cc(-c4ccccc4)n[nH]3)SC2)c1` [6b], the values for the IC50 in the experiment with STAT1 and in the experiment on STAT3 (setting [1]) were 45.9 µM and 5.6 µM, respectively. On to `c1ccc(C2=Nn3c(nnc3-c3[nH]nc4c3CCC4)SC2)cc1` [7a], for which the figures for the IC50 with STAT1 and with STAT3 (setting [1]) were more than 50 µM and 21.2 ± 23.5 µM, respectively.

Turning to `c1ccc(C2=Nn3c(nnc3-c3cc(-c4ccccc4)n[nH]3)SC2)cc1` [7b], the IC50 in the experiment with STAT1 is more than 50 µM; with STAT3 (setting [1]), 27 µM. The like results for `c1cc(C2=Nn3c(nnc3-c3[nH]nc4c3CCC4)SC2)ccn1` [9a] were, in that order, more than 50 µM and more than 50 µM.

In the case of `c1ccc(-c2cc(-c3nnc4n3N=C(c3ccncc3)CS4)[nH]n2)cc1` [9b], the IC50 with STAT1 and in the experiment on STAT3 (setting [1]) was more than 50 µM in each case. As to `Clc1ccc(C2=Nn3c(nnc3-c3[nH]nc4c3CCC4)SC2)s1` [10a], the IC50 in the experiment with STAT1 was more than 50 µM. For `Clc1ccc(C2=Nn3c(nnc3-c3cc(-c4ccccc4)n[nH]3)SC2)s1` [10b], the IC50 with STAT1 and with STAT3 (setting [1]) was more than 50 µM throughout. Consider `Cc1ccc(C2=Nn3c(nnc3-c3[nH]nc4c3CCC4)SC2C)cc1` (stereo not shown) [compound 10472], for which the IC50 in the experiment on Cal33 cells (Table 2) was 0.18 µM; in the experiment with STAT3 (setting [2]) it was 41.1 µM. The corresponding values for `Cc1ccc(C2=Nn3c(nnc3-c3cc(-c4ccccc4)n[nH]3)SC2C)cc1` (stereo not shown) [compound 10473] are 12 µM and 14.1 µM.

Consider `CC1Sc2nnc(-c3cc(-c4ccccc4)n[nH]3)n2N=C1c1ccc(OC(F)(F)F)cc1` (stereo not shown) [compound 10474], for which the IC50 with Cal33 cells (Table 2) amounted to 50 µM; with STAT3 (setting [2]), 24.2 µM. For the compound `COc1cccc(C2=Nn3c(nnc3-c3cc(-c4ccccc4)n[nH]3)SC2C)c1` (stereo not shown) [compound 10475], the IC50 was 12.4 µM in the experiment with Cal33 cells (Table 2) and 7.1 µM in the experiment with STAT3 (setting [2]). On to `CC1Sc2nnc(-c3[nH]nc4c3CCC4)n2N=C1c1ccc(Br)cc1` (stereo not shown) [compound 10476], for which the figures for the IC50 in the experiment on Cal33 cells (Table 2) and in the experiment on STAT3 (setting [2]) were 0.79 µM and 18.6 µM, respectively. For the compound `CC1Sc2nnc(-c3nn(Cc4ccc(OC(F)(F)F)cc4)c4c3CCC4)n2N=C1c1ccc(Cl)c(Cl)c1` (stereo not shown) [compound 10477], the IC50 in the experiment with Cal33 cells (Table 2) amounted to 34.3 µM; in the experiment on STAT3 (setting [2]), 31 µM.

On to `CC1Sc2nnc(-c3cc(-c4ccccc4)n[nH]3)n2N=C1c1ccc(C(F)(F)F)cc1` (stereo not shown) [compound 10478], for which the IC50 in the experiment with Cal33 cells (Table 2) was 50 µM; in the experiment on STAT3 (setting [2]), 35.9 µM. On to `COc1ccc(C2=Nn3c(nnc3-c3cc(-c4ccccc4)n(C(C)=O)n3)SC2C)cc1` (stereo not shown) [compound 10479], for which the IC50 was found to be 38.1 µM in the experiment on Cal33 cells (Table 2) and 7.9 µM in the experiment with STAT3 (setting [2]). Regarding `COc1ccc(C2=Nn3c(nnc3-c3cc(-c4ccccc4)nn3C(C)=O)SC2C)cc1` (stereo not shown) [compound 10480], the values for the half-inhibitory concentration (IC50) in the experiment on Cal33 cells (Table 2) and in the experiment with STAT3 (setting [2]) were 30.4 µM and 6.3 µM, respectively. With `CC1Sc2nnc(-c3nn(Cc4ccccc4)c4c3CCC4)n2N=C1c1ccc(Cl)c(Cl)c1` (stereo not shown) [compound 10491], the concentration for half-maximal inhibition (IC50) was 17.4 µM with Cal33 cells (Table 2) and 5.9 µM in the experiment with STAT3 (setting [2]). Take `COc1ccc(C2=Nn3c(nnc3-c3[nH]nc4c3CCC4)SC2C)cc1OC` (stereo not shown) [compound 10494]: the IC50 was found to be 5.7 µM in the experiment on Cal33 cells (Table 2) and 25.1 µM in the experiment with STAT3 (setting [2]). As for `COc1ccc(C2=Nn3c(nnc3-c3cc(-c4ccccc4)n[nH]3)SC2C)cc1OC` (stereo not shown) [compound 10495], the IC50 in the experiment on Cal33 cells (Table 2) came out at 13.1 µM; in the experiment on STAT3 (setting [2]), 7.6 µM.

For `CC1Sc2nnc(-c3[nH]nc4c3CCC4)n2N=C1c1ccc(F)c(F)c1` (stereo not shown) [compound 10510], the IC50 was 50 µM with Cal33 cells (Table 2) and 47.1 µM in the experiment with STAT3 (setting [2]). The like results for `COc1ccc(C2=Nn3c(nnc3-c3cc(-c4ccccc4)n[nH]3)SC2C)cc1` (stereo not shown) [compound 10511] were, in that order, 28 µM and 7.6 µM. The corresponding values for `COc1ccc(C2=Nn3c(nnc3-c3[nH]nc4c3CN(Cc3ccccc3)C4)SC2C)cc1` (stereo not shown) [compound 10512] are 4.6 µM and 27 µM. As for `CCN(CC)c1ccc(C2=Nn3c(nnc3-c3[nH]nc4c3CCC4)SC2C)cc1` (stereo not shown) [compound 10521], the IC50 with Cal33 cells (Table 2) was determined as 1 µM; with STAT3 (setting [2]), 6.6 µM.

As for `CC1Sc2nnc(-c3cc(-c4ccccc4)n[nH]3)n2N=C1c1ccc(N2CCOCC2)cc1` (stereo not shown) [compound 10522], the IC50 with Cal33 cells (Table 2) is 9.6 µM; in the experiment on STAT3 (setting [2]) it was 39.3 µM. Take `CC1Sc2nnc(-c3cc(-c4ccccc4)n[nH]3)n2N=C1c1ccc(F)c(F)c1` (stereo not shown) [compound 10532]: the IC50 in the experiment on Cal33 cells (Table 2) turned out to be 14.2 µM; in the experiment with STAT3 (setting [2]), 8.6 µM.

On to `COc1ccc(C2=Nn3c(-c4cc(-c5ccccc5)n[nH]4)nnc3[S+]([O-])C2C)cc1` (stereo not shown) [compound 10534], for which the IC50 in the experiment with Cal33 cells (Homo sapiens, CAL-33, Table 2) worked out at 50 µM; in the experiment on STAT3 (setting [2]) it was 26.2 µM. `COc1cccc(C2=Nn3c(nnc3-c3cc(-c4ccc(Cl)cc4)n[nH]3)SC2C)c1` (stereo not shown) [compound 10535]: the IC50 is 6.3 µM in the experiment with Cal33 cells (Table 2) and 7 µM in the experiment with STAT3 (setting [2]). For `COc1cccc(C2=Nn3c(nnc3-c3cc(-c4cccc(Cl)c4)n[nH]3)SC2C)c1` (stereo not shown) [compound 10536], the IC50 was 9.3 µM in the experiment on Cal33 cells (Table 2) and 9.1 µM in the experiment on STAT3 (setting [2]). Turning to `CC1Sc2nnc(-c3cc(-c4ccc(Cl)cc4)n[nH]3)n2N=C1c1ccc(Cl)c(Cl)c1` (stereo not shown) [compound 10537], the IC50 with Cal33 cells (Table 2) worked out at 7.6 µM; with STAT3 (setting [2]) it was 16 µM. The corresponding values for `CC1Sc2nnc(-c3cc(-c4cccc(Cl)c4)n[nH]3)n2N=C1c1ccc(Cl)c(Cl)c1` (stereo not shown) [compound 10538] are 13.7 µM and 32.2 µM.

Turning to `COc1ccc(C2=Nn3c(nnc3-c3cc(-c4cccc(Cl)c4)n[nH]3)SC2C)cc1` (stereo not shown) [compound 10539], the results for the IC50 in the experiment on Cal33 cells (Table 2) and with STAT3 (setting [2]) were 12.7 µM and 8.7 µM, respectively. For the compound `COc1ccc(C2=Nn3c(nnc3-c3cc(-c4ccccc4)nn3C)SC2C)cc1` (stereo not shown) [compound 10540], the IC50 worked out at 1.3 µM in the experiment with Cal33 cells (Table 2) and 4.7 µM in the experiment on STAT3 (setting [2]). For `COc1ccc(C2=Nn3c(nnc3-c3cc(-c4ccccc4)n(C)n3)SC2C)cc1` (stereo not shown) [compound 10542], the IC50 with Cal33 cells (Table 2) came out at 15.1 µM; in the experiment with STAT3 (setting [2]), 6.5 µM. As for `CC1Sc2nnc(-c3cc(-c4ccccc4)n(C)n3)n2N=C1c1ccc(Cl)c(Cl)c1` (stereo not shown) [compound 10543], the IC50 in the experiment with Cal33 cells (Table 2) was found to be 35 µM; with STAT3 (setting [2]), 4.8 µM. Regarding `COc1ccc(C2=Nn3c(nnc3-c3n[nH]c(-c4ccc(Cl)cc4)c3C)SC2C)cc1` (stereo not shown) [compound 10547], the results for the IC50 in the experiment with Cal33 cells (Table 2) and in the experiment on STAT3 (setting [2]) were 1.3 µM and 7.3 µM, respectively. The corresponding values for `COc1ccc(C2=Nn3c(nnc3-c3cc(-c4ccccc4)n(C)n3)SC2C(C)C)cc1` (stereo not shown) [compound 10554] are 19.1 µM and 8.3 µM. As for `CCN(CC)c1ccc(C2=Nn3c(nnc3-c3cc(-c4ccccc4)n(C)n3)SC2C)cc1` (stereo not shown) [compound 10555], the IC50 amounted to 10.5 µM in the experiment with Cal33 cells (Table 2) and 3.7 µM in the experiment on STAT3 (setting [2]). For the compound `CC(C)C1Sc2nnc(-c3cc(-c4ccccc4)n(C)n3)n2N=C1c1ccc(Cl)c(Cl)c1` (stereo not shown) [compound 10556], the IC50 turned out to be 48.6 µM with Cal33 cells (Table 2) and 27.3 µM in the experiment on STAT3 (setting [2]). Regarding `CCN(CC)c1ccc(C2=Nn3c(nnc3-c3cc(-c4ccccc4)nn3C)SC2C)cc1` (stereo not shown) [compound 10559], the IC50 in the experiment on Cal33 cells (Table 2) was determined as 27.5 µM; in the experiment on STAT3 (setting [2]) it was 5.7 µM. `CC(C)C1Sc2nnc(-c3cc(-c4ccccc4)n(C)n3)n2N=C1c1ccccc1` (stereo not shown) [compound 10562]: the figures for the IC50 with Cal33 cells (Table 2) and in the experiment on STAT3 (setting [2]) were 50 µM and 12.2 µM, respectively.
